What was measured:
[1] = In vivo delivery of heparin by oral administration in rats, APTT (Table 6); parameters: species or system rat; details: heparin 100 mg/kg
Description: In a test tube, 900 mg of carrier were dissolved in 3 mL of propylene glycol, and 0.299 g of sodium heparin was dissolved in 3 mL of water. The solutions were mixed by vortex. Sodium hydroxide (10M) was added to the resulting mixture until a solution was obtained. The pH was then adjusted to 7.4±0.5 with concentrated hydrochloric acid, and the final solution was sonicated at 40° C. for 30 minutes.
A group of fasted, conscious rats were administered the dosing compositions by oral gavage. Blood samples were collected by cardiac puncture following the administration of ketamine (44 mg/kg). Heparin activity was determined by utilizing the activated partial thromboplastim time (APTT) according to the method of Henry, J. B., Clinical Diagnosis and Management by Laboratory Methods; Philadelphia. Pa.; W B Saunders (1979).
Heparin (100 mg/kg) was administered by oral gavage to rats, and heparin activity was determined according to the procedure of Example 44.

[2] = In vivo delivery of rhGH in rats (Table 1), serum rhGH by ELISA; parameters: species or system rat; details: oral, no carrier, rhGH 6 mg/kg
Description: Dosing compositions were prepared by mixing the modified amino acids and recombinant human growth hormone (rhGH) as listed in Table 1 below in a phosphate buffer solution at a pH of about 7-8.
Rats were administered the dosing composition by sublingual, oral gavage, intraduodenal administration, or colonic administration. Delivery was evaluated by using an ELISA assay for rhGH from Medix Biotech, Inc. For intracolonic administration, a sample was prepared and dosed to fasted rats at 25 mg/kg of carrier in a buffered solution containing propylene glycol (0-50%) and 1 mg/kg rhGH.

[3] = Delivery agent enhancement of rhGH bioavailability, subcutaneous administration in rats (Table 2); assay type: in vivo, rat; details: no delivery agent (0.0 mg/kg), rhGH alone (Comparative Example 16A)
Description: The delivery agents were reconstituted with distilled water and adjusted to pH 7.2-8.0 with either aqueous hydrochloric acid or aqueous sodium hydroxide. A stock solution of rhGH was prepared by mixing rhGH, D-mannitol and glycine and dissolving this mixture in 2% glycerol/water. The stock solution was then added to the delivery agent solution. Several delivery agent to active agent ratios were studied.
Male Sprague-Dawley rats weighing 200-250 g were fasted for 24 hours and administered ketamine (44 mg/kg) and chlorpromazine (1.5 mg/kg) 15 minutes prior to dosing. The rats were administered one of the dosing solutions described above by subcutaneous injection, intranasal instillation, or sublingual instillation. Blood samples were collected serially from the tail artery for serum calcium concentration determination or serum rhGH concentrations. The dose-of rhGH administered in these experiments was 0.
Serum rhGH concentrations were quantified by an rhGH enzyme immunoassay test kit.

In the case of `O=C(O)CCCCCCCNC(=O)/C=C/c1ccccc1F` [Compound XII], the “Mean Peak APTT” value ([1]; carrier 300 mg/kg) is reported as 49.53 ± 17.1 s.

With Heparin [reference compound] the “Mean Peak APTT” value ([1]; no carrier) was 20.7 ± 0.17 s.

With “rhGH: recombinant human growth hormone, active agent dosed alone as comparative example” the “Mean Peak Serum Levels of rhGH” value [2] was less than 10 ± 10 ng/mL and the “Peak Serum [rhGH]” value [3] was 4 ± 2 ng/mL.
